Common to all, as to type: functional
Assay [1] deals with Klebsiella pneumoniae. The experiment in a line: Antibacterial activity against Klebsiella pneumoniae assessed as diameter of zone of inhibition at 15 ug/disc by disc diffusion method. Conditions: read-out: DIZ.
The test system of assay [2] is Proteus vulgaris. As to the kind of experiment: Antibacterial activity against Proteus vulgaris assessed as diameter of zone of inhibition at 15 ug/disc by disc diffusion method. The following applies: read-out: DIZ.
For assay [3], the system named is Pseudomonas aeruginosa. As to the kind of experiment: Antibacterial activity against Pseudomonas aeruginosa assessed as diameter of zone of inhibition at 15 ug/disc by disc diffusion method. The following applies: read-out: DIZ.
The subject of assay [4] is Escherichia coli. As to the kind of experiment: Antibacterial activity against Escherichia coli assessed as diameter of zone of inhibition at 15 ug/disc by disc diffusion method. The following applies: read-out: DIZ. (In agar diffusion tests the substance spreads into inoculated agar from a disc or well.)
In assay [5] the test system is Staphylococcus aureus. The experiment in a line: Antibacterial activity against Staphylococcus aureus assessed as diameter of zone of inhibition at 15 ug/disc by disc diffusion method. Conditions: read-out: DIZ.
Assay [6] relates to Klebsiella pneumoniae. The experiment in a line: Antibacterial activity against Klebsiella pneumoniae assessed as diameter of zone of inhibition at […] by disc diffusion method.
In assay [7] the test system is Staphylococcus aureus. As to the kind of experiment: Antibacterial activity against Staphylococcus aureus assessed as diameter of zone of inhibition at […] by disc diffusion method.
The subject of assay [8] is Proteus vulgaris. As to the kind of experiment: Antibacterial activity against Proteus vulgaris by serial dilution method.
The subject of assay [9] is Klebsiella pneumoniae. The experiment in a line: Antibacterial activity against Klebsiella pneumoniae by serial dilution method.
In assay [10] the test system is Candida albicans. As to the kind of experiment: Antifungal activity against Candida albicans assessed as diameter of zone of inhibition at […] by disc diffusion method.
The test system of assay [11] is Candida albicans. As to the kind of experiment: Antifungal activity against Candida albicans by serial dilution method.
Assay [12] has as its system Escherichia coli. As to the kind of experiment: Antibacterial activity against Escherichia coli by serial dilution method.
The subject of assay [13] is Proteus vulgaris. As to the kind of experiment: Antibacterial activity against Proteus vulgaris assessed as diameter of zone of inhibition at […] by disc diffusion method.
Assay [14] has as its system Pseudomonas aeruginosa. The experiment in a line: Antibacterial activity against Pseudomonas aeruginosa assessed as diameter of zone of inhibition at […] by disc diffusion method.
The test system of assay [15] is Escherichia coli. The experiment in a line: Antibacterial activity against Escherichia coli assessed as diameter of zone of inhibition at […] by disc diffusion method.
The subject of assay [16] is Staphylococcus aureus. As to the kind of experiment: Antibacterial activity against Staphylococcus aureus by serial dilution method.
Assay [17] has as its system Klebsiella pneumoniae. As to the kind of experiment: Antibacterial activity against Klebsiella pneumoniae assessed as diameter of zone of inhibition at 10 ug/disc by disc diffusion method. Conditions: read-out: DIZ.
The subject of assay [18] is Escherichia coli. The experiment in a line: Antibacterial activity against Escherichia coli assessed as diameter of zone of inhibition at 10 ug/disc by disc diffusion method. Conditions: read-out: DIZ.
The test system of assay [19] is Pseudomonas aeruginosa. The experiment in a line: Antibacterial activity against Pseudomonas aeruginosa assessed as diameter of zone of inhibition at 10 ug/disc by disc diffusion method. Conditions: read-out: DIZ.
Assay [20] has as its system Proteus vulgaris. As to the kind of experiment: Antibacterial activity against Proteus vulgaris assessed as diameter of zone of inhibition at 10 ug/disc by disc diffusion method. Conditions: read-out: DIZ.
Assay [21] relates to Staphylococcus aureus. As to the kind of experiment: Antibacterial activity against Staphylococcus aureus assessed as diameter of zone of inhibition at 10 ug/disc by disc diffusion method. The following applies: read-out: DIZ.

Converted amounts (≈) assume the structure as drawn.

Here are results for three compounds from ChEMBL document CHEMBL4350978, “Phytochemical and pharmacological attributes of piperine: A bioactive ingredient of black pepper” (2019).

The MIC is the least concentration at which growth counts as inhibited. Low readings indicate inhibition by little substance, high ones a need for much substance.

Take `CC[C@H]1OC(=O)[C@H](C)[C@@H](O[C@H]2C[C@@](C)(OC)[C@@H](O)[C@H](C)O2)[C@H](C)[C@@H](O[C@@H]2O[C@H](C)C[C@H](N(C)C)[C@H]2O)[C@](C)(O)C[C@@H](C)C(=O)[C@H](C)[C@@H](O)[C@]1(C)O` [ERYTHROMYCIN]: the zone of inhibition at 15 µg/disc was 10 mm in the assay on Klebsiella pneumoniae [1]; 6 mm with Proteus vulgaris [2]; 18 mm in the assay with Pseudomonas aeruginosa [3]; 15 mm with Escherichia coli [4]; 24 mm in the assay on Staphylococcus aureus [5].
`O=C(/C=C/C=C/c1ccc2c(c1)OCO2)N1CCCCC1` [PIPERINE]: the “diameter of the inhibition zone (DIZ)” value in the assay with Klebsiella pneumoniae [6] is given as 15 mm; in the assay on Staphylococcus aureus [7], 12 mm; in the assay with Candida albicans [10], 23 mm; in the assay on Proteus vulgaris [13] it was 17 mm; in the assay on Pseudomonas aeruginosa [14], 8 mm; in the assay with Escherichia coli [15] it was 20 mm. In addition, the MIC in the assay with Proteus vulgaris [8] is 12.5 mg/mL (≈ 43.8 mM); with Klebsiella pneumoniae [9] it was 25 mg/mL (≈ 87.6 mM); against Candida albicans [11] it was 3.12 mg/mL (≈ 11 mM); in the assay on Escherichia coli [12] it was 6.25 mg/mL (≈ 21.9 mM); against Staphylococcus aureus [16] it was 50 mg/mL (≈ 175 mM).
With `CN[C@@H]1[C@H](O[C@H]2[C@H](O[C@H]3[C@H](O)[C@@H](O)[C@H](N=C(N)N)[C@@H](O)[C@@H]3N=C(N)N)O[C@@H](C)[C@]2(O)C=O)O[C@@H](CO)[C@H](O)[C@H]1O` [STREPTOMYCIN], the zone of inhibition at 10 µg/disc in the assay with Klebsiella pneumoniae [17] was 20 mm; in the assay on Escherichia coli [18] it was 13.5 mm; in the assay with Pseudomonas aeruginosa [19] it was 22 mm; with Proteus vulgaris [20], 10 mm; in the assay with Staphylococcus aureus [21], 23 mm.
